In ChEMBL document CHEMBL1150871, “New Briarane Stecholide Diterpenes from the Indonesian Gorgonian Briareum sp” (J Nat Prod, 1998):
Values after ≈ are worked out from the molar mass of the structure shown.

What was measured:
Assay type in all cases: functional, cell-based
P388 = experiment: Cytotoxicity against mouse P388 cells
A549 = experiment: Cytotoxicity against human A549 cells
HT-29 = experiment: Cytotoxicity against human HT-29 cells
SK-MEL-28 = experiment: Cytotoxicity against human SK-MEL-28 cells

Structure (SMILES): CC(=O)O[C@H]1CC/C(C)=C\[C@@H]2OC(=O)[C@]3(C)O[C@@]23[C@@H](OC(C)=O)[C@H]2[C@@]3(C)O[C@H]3C[C@H](OC(C)=O)[C@]12C
- EC50 (P388): 1.59 mg/L (≈ 3.14 µM)
- IC50 (A549): > 10 mg/L
- IC50 (HT-29): > 10 mg/L
- IC50 (SK-MEL-28): > 10 mg/L

Structure (SMILES): CC(=O)O[C@@H]1[C@H]2[C@@]3(C)O[C@H]3[C@@H](O)[C@H](OC(C)=O)[C@]2(C)[C@@H](OC(C)=O)[C@H](OC(C)=O)C/C(C)=C\[C@@H]2OC(=O)[C@]3(C)O[C@@]213 [STECHOLIDE L]
- IC50 (P388): 10 mg/L (≈ 17.2 µM)
- IC50 (A549): 2.5 mg/L (≈ 4.31 µM)
- IC50 (HT-29): 5 mg/L (≈ 8.61 µM)
- IC50 (SK-MEL-28): 5 mg/L (≈ 8.61 µM)

Structure (SMILES): CCCC(=O)O[C@H]1C[C@@H](OC(C)=O)/C(C)=C\[C@@H]2OC(=O)[C@]3(C)O[C@@]23[C@@H](OC(C)=O)[C@H]2[C@@]3(C)O[C@H]3C[C@H](OC(C)=O)[C@]12C [STECHOLIDE A ACETATE]
- IC50 (P388): > 10 mg/L
- IC50 (A549): > 10 mg/L
- IC50 (HT-29): > 10 mg/L
- IC50 (SK-MEL-28): > 10 mg/L

Structure (SMILES): CC(=O)O[C@H]1C=C[C@@](C)(O)[C@@H]2[C@H](OC(C)=O)[C@@]34O[C@@]3(C)C(=O)O[C@H]4/C=C(/C)CC[C@H](OC(C)=O)[C@@]12C
- IC50 (P388): > 10 mg/L
- IC50 (A549): > 10 mg/L
- IC50 (HT-29): > 10 mg/L
- IC50 (SK-MEL-28): > 10 mg/L

Structure (SMILES): CC(=O)O[C@@H]1[C@H]2C(C)=C[C@@H](O)[C@H](OC(C)=O)[C@]2(C)[C@@H](OC(C)=O)[C@H](OC(C)=O)C/C(C)=C\[C@@H]2OC(=O)[C@]3(C)O[C@@]213 [STECHOLIDE J]
- IC50 (P388): > 10 mg/L
- IC50 (A549): > 10 mg/L
- IC50 (HT-29): > 10 mg/L
- IC50 (SK-MEL-28): > 10 mg/L

Structure (SMILES): CC(=O)O[C@H]1C/C(C)=C\[C@@H]2OC(=O)[C@]3(C)O[C@]23[C@@H](OC(C)=O)[C@H]2C(C)=CC[C@H](OC(C)=O)[C@]2(C)[C@H]1OC(C)=O
- IC50 (P388): > 10 mg/L
- IC50 (A549): > 10 mg/L
- IC50 (HT-29): > 10 mg/L
- IC50 (SK-MEL-28): > 10 mg/L

Structure (SMILES): CC(=O)O[C@H]1C[C@@H]2O[C@]2(C)[C@@H]2[C@H](OC(C)=O)[C@@]34O[C@@]3(C)C(=O)O[C@H]4/C=C(/C)[C@H](OC(C)=O)C[C@H](OC(C)=O)[C@]12C [STECHOLIDE C ACETATE]
- IC50 (P388): > 10 mg/L
- IC50 (A549): > 10 mg/L
- IC50 (HT-29): > 10 mg/L
- IC50 (SK-MEL-28): > 10 mg/L

Structure (SMILES): CC(=O)O[C@@H]1[C@@H]2O[C@]2(C)[C@@H]2[C@@H](OC(C)=O)[C@]34O[C@@]3(C)C(=O)O[C@H]4/C=C(/C)C[C@@H](OC(C)=O)[C@H](OC(C)=O)[C@@]2(C)[C@H]1OC(C)=O [STECHOLIDE K]
- IC50 (P388): > 10 mg/L
- IC50 (A549): > 10 mg/L
- IC50 (HT-29): > 10 mg/L
- IC50 (SK-MEL-28): > 10 mg/L

Structure (SMILES): CCCC(=O)O[C@@H]1C/C(C)=C\[C@@H]2OC(=O)[C@]3(C)O[C@]23[C@H](OC(C)=O)[C@H]2C(C)=C[C@@H](O)[C@H](OC(C)=O)[C@]2(C)[C@H]1OC(C)=O [STECHOLIDE I]
- IC50 (P388): > 10 mg/L
- IC50 (A549): > 10 mg/L
- IC50 (HT-29): > 10 mg/L
- IC50 (SK-MEL-28): > 10 mg/L
